Experimental data reported in US20210255184A1, “Biosensor Device and Methods” (The New Zealand Institute for Plant and Food Research …, priority 2018, published 2021).
Entries after “also recorded” stand apart in the source; their conditions may differ.

Molecular target: T1, Or10a (Drosophila melanogaster, UniProt Q9VYZ1)
T1 construct: his-tag; made in house; host or cells: baculovirus-infected Sf9 cells
T1 sequence (Q9VYZ1 1-406): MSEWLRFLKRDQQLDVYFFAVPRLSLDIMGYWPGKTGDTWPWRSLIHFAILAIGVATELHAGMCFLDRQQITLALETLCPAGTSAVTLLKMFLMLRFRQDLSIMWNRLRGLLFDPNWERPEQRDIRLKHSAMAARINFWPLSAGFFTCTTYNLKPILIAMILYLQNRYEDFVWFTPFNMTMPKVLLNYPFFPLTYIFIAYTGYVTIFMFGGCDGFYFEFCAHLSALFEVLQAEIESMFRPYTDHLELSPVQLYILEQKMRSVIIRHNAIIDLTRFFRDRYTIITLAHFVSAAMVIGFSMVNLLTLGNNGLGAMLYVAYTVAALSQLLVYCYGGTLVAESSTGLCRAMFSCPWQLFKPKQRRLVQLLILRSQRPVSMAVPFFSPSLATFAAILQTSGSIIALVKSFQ
Assay: QCM-D sensor, Or10a liposomes
Type: biochemical
Conditions: 1.6 to 1000 μM in PBS with 1% DMSO
Description: Gold (100 nm) sensor crystals were sonicated in ethanol and milli-Q water for 15 minutes each respectively. A 5:1:1 volume ratio of milli-Q water, ammonia (25%), and hydrogen peroxide (30%) was heated to 75° C. for 5 minutes and the sonicated crystals were placed in the heated solution for 5 minutes. Then the crystals were removed from the solution and rinsed with milli-Q water before drying with nitrogen gas. The clean gold crystals were thiol-functionalized by exposing them to 2 mM ethanolic solution of MHA overnight followed by washing with ethanol solution in order to remove excess or loosely bound molecules. NHS/EDC was prepared using 2:1 mol:mol ratio of EDC:NHS (100 mM EDC, 50 mM NHS) in 2 ml PBS (pH=6.5) solution. Each OrX/liposome stock solution was diluted 100 fold for QCM-D measurements in PBS buffer solution (pH=7.4). The SAM functionalized crystals were then placed into the Q-sense analyser instrument (Biolin Scientific) chamber and flowed with the NHS/EDC, Or10a/liposomes or Or10a/Orco liposomes, and various concentrations of methyl hexanoate (1.6 μM, 8 μM, 20 μM, 40 μM, 100 μM, 200 μM, 500 μM and 1000 μM) in PBS buffer solution containing 1% DMSO to measure the changes in frequency (Δf) and dissipation (ΔD) values.

Structure (SMILES) | change in oscillation frequency on ligand exposure
CCCCCC(=O)OC [methyl hexanoate] | negligible response; also recorded: not observed
COC(=O)c1ccccc1O [methyl salicylate] | increase in the frequency
